According to ChEMBL document CHEMBL1177794, “Broad spectrum alkynyl inhibitors of T315I Bcr-Abl” (Bioorg Med Chem Lett, 2010):

How the values were obtained:
[1] = target: AP2-associated protein kinase 1 (Homo sapiens) (UniProt Q2M2I8); test: Inhibition of AAK1 at 10 uM; settings: values are per cent of control
[2] = target: Non-receptor tyrosine-protein kinase TYK2 (Homo sapiens) (UniProt P29597); test: Inhibition of TYK2 JH1 catalytic domain at 10 uM; settings: values are per cent of control
[3] = target: TGF-beta receptor type-2 (Homo sapiens) (UniProt P37173); test: Inhibition of TGFBR2 at 10 uM
[4] = system: Mast/stem cell growth factor receptor Kit (Homo sapiens), P10721 [V559D,V654A]; test: Inhibition of KIT V559D, V654A mutant at 10 uM; settings: values are per cent of control
[5] = target: Ephrin type-A receptor 1 (Homo sapiens) (UniProt P21709); test: Inhibition of EPHA1 at 10 uM; settings: values are per cent of control
[6] = target: Serine/threonine-protein kinase PAK 2 (Homo sapiens) (UniProt Q13177); test: Inhibition of PAK2 at 10 uM
Sequence of Serine/threonine-protein kinase PAK 2 (Homo sapiens) (Q13177 whole entry): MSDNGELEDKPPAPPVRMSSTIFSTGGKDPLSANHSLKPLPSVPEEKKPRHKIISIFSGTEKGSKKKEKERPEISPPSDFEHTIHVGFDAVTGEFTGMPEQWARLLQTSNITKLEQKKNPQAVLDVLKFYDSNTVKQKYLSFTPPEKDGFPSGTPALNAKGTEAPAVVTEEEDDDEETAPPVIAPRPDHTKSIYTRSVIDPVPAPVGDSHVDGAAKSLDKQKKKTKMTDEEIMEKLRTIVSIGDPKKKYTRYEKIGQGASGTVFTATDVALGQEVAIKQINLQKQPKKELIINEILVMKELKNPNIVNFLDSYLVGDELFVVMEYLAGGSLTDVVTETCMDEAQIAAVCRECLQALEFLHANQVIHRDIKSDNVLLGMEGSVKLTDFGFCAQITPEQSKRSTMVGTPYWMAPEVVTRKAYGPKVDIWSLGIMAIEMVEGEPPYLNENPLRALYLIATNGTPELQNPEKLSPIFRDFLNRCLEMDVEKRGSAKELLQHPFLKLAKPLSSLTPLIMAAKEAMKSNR

[7] = target: Calcium/calmodulin-dependent protein kinase kinase 2 (Homo sapiens) (UniProt Q96RR4); test: Inhibition of CAMKK2 at 10 uM; settings: values are per cent of control
[8] = target: Serine/threonine-protein kinase 38-like (Homo sapiens) (UniProt Q9Y2H1); test: Inhibition of NDR2 at 10 uM
Sequence of Serine/threonine-protein kinase 38-like (Homo sapiens) (Q9Y2H1 2-464 limits assumed): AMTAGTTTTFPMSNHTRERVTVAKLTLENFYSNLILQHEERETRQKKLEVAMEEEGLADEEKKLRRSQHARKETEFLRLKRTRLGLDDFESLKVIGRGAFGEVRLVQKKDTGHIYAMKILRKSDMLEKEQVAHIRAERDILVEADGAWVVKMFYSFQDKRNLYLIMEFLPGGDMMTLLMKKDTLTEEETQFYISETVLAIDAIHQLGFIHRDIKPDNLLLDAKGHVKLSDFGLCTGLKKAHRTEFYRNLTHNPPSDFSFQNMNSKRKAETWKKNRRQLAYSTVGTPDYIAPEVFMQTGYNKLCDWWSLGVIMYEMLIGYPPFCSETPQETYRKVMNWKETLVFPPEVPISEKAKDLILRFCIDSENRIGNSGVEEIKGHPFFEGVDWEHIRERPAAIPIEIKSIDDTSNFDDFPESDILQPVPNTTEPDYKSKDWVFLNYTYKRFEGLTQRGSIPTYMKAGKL

[9] = system: Receptor-type tyrosine-protein kinase FLT3 (Homo sapiens), P36888 [D835Y]; test: Inhibition of FLT3 D835Y mutant at 10 uM; settings: values are per cent of control
[10] = target: Inhibitor of nuclear factor kappa-B kinase subunit epsilon (Homo sapiens) (UniProt Q14164); test: Inhibition of IKK-epsilon at 10 uM; settings: values are per cent of control
[11] = target: Ribosomal protein S6 kinase alpha-4 (Homo sapiens) (UniProt O75676); test: Inhibition of RPS6KA4 C-terminal domain2 at 10 uM
[12] = target: Fibroblast growth factor receptor 4 (Homo sapiens) (UniProt P22455); test: Inhibition of FGFR4 at 10 uM; settings: values are per cent of control
[13] = target: Serine/threonine-protein kinase MRCK alpha (Homo sapiens) (UniProt Q5VT25); test: Inhibition of MRCKA at 10 uM
[14] = system: Phosphatidylinositol 4,5-bisphosphate 3-kinase catalytic subunit alpha isoform (Homo sapiens), P42336 [I800L]; test: Inhibition of PIK3CA I800L mutant at 10 uM
[15] = target: Homeodomain-interacting protein kinase 1 (Homo sapiens) (UniProt Q86Z02); test: Inhibition of HIPK1 at 10 uM; settings: values are per cent of control
[16] = target: Serine/threonine-protein kinase PAK 4 (Homo sapiens) (UniProt O96013); test: Inhibition of PAK4 at 10 uM
[17] = target: Cyclin-dependent kinase-like 2 (Homo sapiens) (UniProt Q92772); test: Inhibition of CDKL2 at 10 uM; settings: values are per cent of control
[18] = target: Ribosomal protein S6 kinase alpha-1 (Homo sapiens) (UniProt Q15418); test: Inhibition of RSK1 C-terminal domain2 at 10 uM
Sequence of Ribosomal protein S6 kinase alpha-1 (Homo sapiens) (Q15418 whole entry, the tested form may be a part): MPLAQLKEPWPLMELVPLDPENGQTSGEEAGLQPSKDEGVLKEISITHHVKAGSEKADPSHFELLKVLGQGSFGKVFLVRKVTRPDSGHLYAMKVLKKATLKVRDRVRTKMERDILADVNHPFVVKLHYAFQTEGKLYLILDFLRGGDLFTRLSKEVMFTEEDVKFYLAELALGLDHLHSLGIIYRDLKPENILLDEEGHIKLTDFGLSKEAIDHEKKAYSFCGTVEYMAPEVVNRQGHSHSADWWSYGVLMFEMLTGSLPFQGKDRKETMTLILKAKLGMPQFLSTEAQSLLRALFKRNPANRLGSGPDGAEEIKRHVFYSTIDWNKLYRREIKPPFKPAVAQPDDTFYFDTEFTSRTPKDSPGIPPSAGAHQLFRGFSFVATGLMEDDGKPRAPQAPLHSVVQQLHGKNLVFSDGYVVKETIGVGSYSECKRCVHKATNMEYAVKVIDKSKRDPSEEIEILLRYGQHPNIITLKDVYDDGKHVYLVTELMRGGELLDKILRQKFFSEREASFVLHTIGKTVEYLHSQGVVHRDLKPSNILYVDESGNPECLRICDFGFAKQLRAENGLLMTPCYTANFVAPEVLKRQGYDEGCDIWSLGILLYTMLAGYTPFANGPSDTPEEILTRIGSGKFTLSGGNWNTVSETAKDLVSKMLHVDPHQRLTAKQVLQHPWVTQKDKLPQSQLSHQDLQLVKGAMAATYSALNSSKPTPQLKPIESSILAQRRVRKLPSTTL

[19] = target: High affinity nerve growth factor receptor (Homo sapiens) (UniProt P04629); test: Inhibition of TRKA at 10 uM; values are per cent of control
[20] = target: Dual specificity tyrosine-phosphorylation-regulated kinase 1B (Homo sapiens) (UniProt Q9Y463); test: Inhibition of DYRK1B at 10 uM; settings: values are per cent of control
Sequence of Dual specificity tyrosine-phosphorylation-regulated kinase 1B (Homo sapiens) (Q9Y463 whole entry, looked up): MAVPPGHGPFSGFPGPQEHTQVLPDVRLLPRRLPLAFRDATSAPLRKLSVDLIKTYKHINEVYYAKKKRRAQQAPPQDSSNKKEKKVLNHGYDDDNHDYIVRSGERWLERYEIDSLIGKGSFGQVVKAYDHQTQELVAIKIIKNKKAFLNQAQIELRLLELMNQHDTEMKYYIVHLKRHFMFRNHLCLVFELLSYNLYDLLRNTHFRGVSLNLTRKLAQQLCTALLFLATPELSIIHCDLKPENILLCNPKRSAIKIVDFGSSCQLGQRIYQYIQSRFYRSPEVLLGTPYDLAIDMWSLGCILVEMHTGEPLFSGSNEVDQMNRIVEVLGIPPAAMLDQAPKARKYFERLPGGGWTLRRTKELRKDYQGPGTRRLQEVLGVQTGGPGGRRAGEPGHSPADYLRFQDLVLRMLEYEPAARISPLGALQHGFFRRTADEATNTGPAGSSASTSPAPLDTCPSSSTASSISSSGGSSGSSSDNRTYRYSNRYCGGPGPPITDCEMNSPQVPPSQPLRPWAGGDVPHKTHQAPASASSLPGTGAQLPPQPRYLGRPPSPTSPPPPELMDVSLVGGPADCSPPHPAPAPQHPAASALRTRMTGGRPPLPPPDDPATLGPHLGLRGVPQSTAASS

[21] = target: Serine/threonine-protein kinase Nek1 (Homo sapiens) (UniProt Q96PY6); test: Inhibition of NEK1 at 10 uM
[22] = target: Serine/threonine-protein kinase ULK2 (Homo sapiens) (UniProt Q8IYT8); test: Inhibition of ULK2 at 10 uM; settings: values are per cent of control
[23] = target: Tyrosine-protein kinase Srms (Homo sapiens) (UniProt Q9H3Y6); test: Inhibition of SRMS at 10 uM
[24] = target: Activin receptor type-1B (Homo sapiens) (UniProt P36896); test: Inhibition of ACVR1B at 10 uM; settings: values are per cent of control
[25] = target: Serine/threonine-protein kinase TAO1 (Homo sapiens) (UniProt Q7L7X3); test: Inhibition of TAOK1 at 10 uM
[26] = target: Bone morphogenetic protein receptor type-1A (Homo sapiens) (UniProt P36894); test: Inhibition of BMPR1A at 10 uM; settings: values are per cent of control
[27] = target: Serine/threonine-protein kinase STK11 (Homo sapiens) (UniProt Q15831); test: Inhibition of LKB1 at 10 uM; settings: values are per cent of control
Sequence of Serine/threonine-protein kinase STK11 (Homo sapiens) (Q15831 whole entry): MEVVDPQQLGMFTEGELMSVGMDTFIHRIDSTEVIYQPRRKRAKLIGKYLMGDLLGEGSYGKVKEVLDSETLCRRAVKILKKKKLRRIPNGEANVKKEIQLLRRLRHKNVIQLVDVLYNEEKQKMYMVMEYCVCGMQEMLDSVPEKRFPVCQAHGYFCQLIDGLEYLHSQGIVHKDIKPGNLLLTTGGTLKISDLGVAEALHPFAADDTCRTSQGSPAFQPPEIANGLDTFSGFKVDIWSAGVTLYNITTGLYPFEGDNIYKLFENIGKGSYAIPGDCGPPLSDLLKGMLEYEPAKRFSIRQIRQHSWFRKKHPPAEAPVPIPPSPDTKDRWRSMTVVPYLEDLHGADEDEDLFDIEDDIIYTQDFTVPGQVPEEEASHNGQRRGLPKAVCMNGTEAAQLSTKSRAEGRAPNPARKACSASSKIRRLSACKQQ

[28] = target: Transient receptor potential cation channel subfamily M member 6 (Homo sapiens) (UniProt Q9BX84); test: Inhibition of TRPM6 at 10 uM; settings: values are per cent of control
[29] = target: Tyrosine-protein kinase ZAP-70 (Homo sapiens) (UniProt P43403); test: Inhibition of ZAP70 at 10 uM; settings: values are per cent of control
[30] = target: Ephrin type-A receptor 2 (Homo sapiens) (UniProt P29317); test: Inhibition of EPHA2 at 10 uM; settings: values are per cent of control
[31] = target: Aurora kinase A (Homo sapiens) (UniProt O14965); test: Inhibition of AURKA at 10 uM; settings: values are per cent of control
Sequence of Aurora kinase A (Homo sapiens) (O14965 whole entry): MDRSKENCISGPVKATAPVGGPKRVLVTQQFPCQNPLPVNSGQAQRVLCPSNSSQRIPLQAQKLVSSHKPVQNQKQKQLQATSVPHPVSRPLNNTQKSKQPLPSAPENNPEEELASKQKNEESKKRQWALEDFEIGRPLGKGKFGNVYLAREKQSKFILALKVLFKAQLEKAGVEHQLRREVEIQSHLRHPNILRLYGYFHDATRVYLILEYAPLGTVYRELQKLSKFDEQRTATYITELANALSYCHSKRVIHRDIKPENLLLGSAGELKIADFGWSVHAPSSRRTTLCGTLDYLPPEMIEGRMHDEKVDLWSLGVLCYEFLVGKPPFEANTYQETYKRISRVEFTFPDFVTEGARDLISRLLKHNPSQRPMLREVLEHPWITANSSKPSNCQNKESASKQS

[32] = target: Mitogen-activated protein kinase kinase kinase kinase 5 (Homo sapiens) (UniProt Q9Y4K4); test: Inhibition of MAP4K5 at 10 uM; settings: values are per cent of control
[33] = target: Serine/threonine-protein kinase B-raf (Homo sapiens) (UniProt P15056); test: Inhibition of BRAF at 10 uM; settings: values are per cent of control
[34] = target: Serine/threonine-protein kinase Chk2 (Homo sapiens) (UniProt O96017); test: Inhibition of CHEK2 at 10 uM; values are per cent of control
Sequence of Serine/threonine-protein kinase Chk2 (Homo sapiens) (O96017 whole entry): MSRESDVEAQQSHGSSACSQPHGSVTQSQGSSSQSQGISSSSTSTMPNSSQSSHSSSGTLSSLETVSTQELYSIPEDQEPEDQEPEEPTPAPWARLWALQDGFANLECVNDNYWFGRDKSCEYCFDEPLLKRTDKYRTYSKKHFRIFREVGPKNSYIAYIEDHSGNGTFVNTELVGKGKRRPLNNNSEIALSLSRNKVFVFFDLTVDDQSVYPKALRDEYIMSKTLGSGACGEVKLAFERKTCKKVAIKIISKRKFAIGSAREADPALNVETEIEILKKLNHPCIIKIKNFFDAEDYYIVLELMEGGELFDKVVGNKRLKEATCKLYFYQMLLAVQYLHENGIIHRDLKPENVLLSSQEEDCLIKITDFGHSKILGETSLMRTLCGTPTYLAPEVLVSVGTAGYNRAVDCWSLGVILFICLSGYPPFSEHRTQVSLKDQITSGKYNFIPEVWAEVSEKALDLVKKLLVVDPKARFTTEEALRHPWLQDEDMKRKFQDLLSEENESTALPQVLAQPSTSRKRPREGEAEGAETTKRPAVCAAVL

[35] = target: Serine/threonine-protein kinase 33 (Homo sapiens) (UniProt Q9BYT3); test: Inhibition of STK33 at 10 uM
[36] = target: Mitogen-activated protein kinase kinase kinase 2 (Homo sapiens) (UniProt Q9Y2U5); test: Inhibition of MAP3K2 at 10 uM; settings: values are per cent of control
[37] = target: SNF-related serine/threonine-protein kinase (Homo sapiens) (UniProt Q9NRH2); test: Inhibition of SNRK at 10 uM
[38] = target: Dual specificity mitogen-activated protein kinase kinase 1 (Homo sapiens) (UniProt Q02750); test: Inhibition of MEK1 at 10 uM; settings: values are per cent of control
[39] = target: Angiopoietin-1 receptor (Homo sapiens) (UniProt Q02763); test: Inhibition of TIE2 at 10 uM; values are per cent of control
Sequence of Angiopoietin-1 receptor (Homo sapiens) (Q02763 whole entry): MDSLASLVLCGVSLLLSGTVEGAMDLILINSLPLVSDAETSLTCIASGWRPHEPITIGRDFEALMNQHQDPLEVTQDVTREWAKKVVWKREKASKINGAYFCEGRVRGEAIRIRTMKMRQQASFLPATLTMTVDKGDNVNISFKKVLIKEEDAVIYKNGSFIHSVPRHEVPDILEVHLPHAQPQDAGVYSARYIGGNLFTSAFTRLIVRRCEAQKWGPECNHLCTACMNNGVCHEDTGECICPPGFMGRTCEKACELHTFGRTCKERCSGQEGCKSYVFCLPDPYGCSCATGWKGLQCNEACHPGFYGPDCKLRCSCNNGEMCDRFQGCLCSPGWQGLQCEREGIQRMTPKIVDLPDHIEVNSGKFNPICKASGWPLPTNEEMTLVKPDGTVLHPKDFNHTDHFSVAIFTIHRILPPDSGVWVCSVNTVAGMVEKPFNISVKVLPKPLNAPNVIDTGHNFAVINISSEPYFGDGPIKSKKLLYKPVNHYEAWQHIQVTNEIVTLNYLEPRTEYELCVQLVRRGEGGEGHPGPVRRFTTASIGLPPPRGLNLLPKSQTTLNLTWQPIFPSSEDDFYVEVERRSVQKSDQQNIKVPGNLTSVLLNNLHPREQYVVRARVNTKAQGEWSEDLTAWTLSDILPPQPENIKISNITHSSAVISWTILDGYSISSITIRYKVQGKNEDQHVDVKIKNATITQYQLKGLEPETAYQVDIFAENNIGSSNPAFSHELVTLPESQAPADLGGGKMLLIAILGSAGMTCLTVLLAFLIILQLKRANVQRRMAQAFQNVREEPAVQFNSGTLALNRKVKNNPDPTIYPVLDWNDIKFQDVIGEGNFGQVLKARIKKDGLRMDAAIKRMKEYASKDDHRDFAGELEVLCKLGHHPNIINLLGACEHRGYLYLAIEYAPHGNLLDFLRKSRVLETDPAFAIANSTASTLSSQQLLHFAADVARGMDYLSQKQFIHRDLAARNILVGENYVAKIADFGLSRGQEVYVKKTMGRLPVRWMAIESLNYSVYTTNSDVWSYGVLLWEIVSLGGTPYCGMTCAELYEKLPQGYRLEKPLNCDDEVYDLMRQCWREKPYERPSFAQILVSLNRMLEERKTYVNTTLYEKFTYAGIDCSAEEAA

[40] = target: RAC-gamma serine/threonine-protein kinase (Homo sapiens) (UniProt Q9Y243); test: Inhibition of AKT3 at 10 uM; settings: values are per cent of control
[41] = target: MAP/microtubule affinity-regulating kinase 4 (Homo sapiens) (UniProt Q96L34); test: Inhibition of MARK4 at 10 uM; settings: values are per cent of control
[42] = target: Myotonin-protein kinase (Homo sapiens) (UniProt Q09013); test: Inhibition of DMPK at 10 uM; settings: values are per cent of control
[43] = target: Epidermal growth factor receptor (Homo sapiens) (UniProt P04626+P00533+Q15303+P21860); test: Inhibition of EGFR E746-A750del mutant at 10 uM; values are per cent of control
[44] = target: Fibroblast growth factor receptor 2 (Homo sapiens) (UniProt P21802); test: Inhibition of FGFR2 at 10 uM; settings: values are per cent of control

Compound `CCN1CCN(Cc2ccc(NC(=O)c3ccc(C)c(C#Cc4cccnc4)c3)cc2C(F)(F)F)CC1` has a residual binding, % of control [1] of 99%, a residual binding, % of control [2] of 4.2% and an inhibition [3] of 1.3%. For the same compound, the residual binding, % of control [4] was 4.2%, the residual binding, % of control [5] was 1.2% and the inhibition [6] was 84%. It also gave a residual binding, % of control [7] of 7.8%, an inhibition [8] of 8.7% and a residual binding, % of control [9] of 0.5%. For the same compound, the residual binding, % of control [10] was 100%, the inhibition [11] was 99% and the residual binding, % of control [12] was 0%. It also gave an inhibition [13] of 87%, an inhibition [14] of 72% and a residual binding, % of control [15] of 37%. It also gave an inhibition [16] of 100%, a residual binding, % of control [17] of 1.4% and an inhibition [18] of 7.2%. The level, % of control [19] was 0.35%, the residual binding, % of control [20] was 47% and the inhibition [21] was 77%. For the same compound, the residual binding, % of control [22] was 50%, the inhibition [23] was 0% and the residual binding, % of control [24] was 85%. For the same compound, the inhibition [25] was 0.25%, the residual binding, % of control [26] was 81% and the residual binding, % of control [27] was 96%. It also gave a residual binding, % of control [28] of 49%, a residual binding, % of control [29] of 62% and a residual binding, % of control [30] of 0.4%. For the same compound, the residual binding, % of control [31] was 100%, the residual binding, % of control [32] was 3% and the residual binding, % of control [33] was 0.05%. The level, % of control [34] was 40%, the inhibition [35] was 14% and the residual binding, % of control [36] was 0.15%. For the same compound, the inhibition [37] was 34%, the residual binding, % of control [38] was 100% and the % of control [39] was 0.05%. The residual binding, % of control [40] was 48%, the residual binding, % of control [41] was 87% and the residual binding, % of control [42] was 100%. It also gave a level, % of control [43] of 1.8% and a residual binding, % of control [44] of 0.5%.
In the case of `CCN1CCN(Cc2ccc(NC(=O)c3ccc(C)c(C#Cc4cnc5[nH]ccc5c4)c3)cc2C(F)(F)F)CC1`, the residual binding, % of control [1] is reported as 59%, the residual binding, % of control [2] is reported as 6.8% and the inhibition [3] is reported as 1.4%. It also gave a residual binding, % of control [4] of 1.4%, a residual binding, % of control [5] of 0.6% and an inhibition [6] of 76%. For the same compound, the residual binding, % of control [7] was 27%, the inhibition [8] was 11% and the residual binding, % of control [9] was 0.85%. The residual binding, % of control [10] was 92%, the inhibition [11] was 87% and the residual binding, % of control [12] was 0%. For the same compound, the inhibition [13] was 73%, the inhibition [14] was 100% and the residual binding, % of control [15] was 48%. It also gave an inhibition [16] of 87%, a residual binding, % of control [17] of 4.8% and an inhibition [18] of 17%. It also gave a level, % of control [19] of 0.3%, a residual binding, % of control [20] of 15% and an inhibition [21] of 50%. The residual binding, % of control [22] was 61%, the inhibition [23] was 0.2% and the residual binding, % of control [24] was 63%. The inhibition [25] was 0%, the residual binding, % of control [26] was 53% and the residual binding, % of control [27] was 60%. For the same compound, the residual binding, % of control [28] was 64%, the residual binding, % of control [29] was 28% and the residual binding, % of control [30] was 0.35%. It also gave a residual binding, % of control [31] of 97%, a residual binding, % of control [32] of 1.6% and a residual binding, % of control [33] of 0.45%. For the same compound, the level, % of control [34] was 22%, the inhibition [35] was 6.8% and the residual binding, % of control [36] was 0.1%. The inhibition [37] was 60%, the residual binding, % of control [38] was 82% and the % of control [39] was 0%. The residual binding, % of control [40] was 82%, the residual binding, % of control [41] was 85% and the residual binding, % of control [42] was 27%. For the same compound, the level, % of control [43] was 0.75% and the residual binding, % of control [44] was 0.5%.
